# Laboratory results taken from article PMC5515969, “Effects of 31 FDA approved small-molecule kinase inhibitors on isolated rat liver mitochondria” (Archives of Toxicology, 2016).
# Where two headings read alike, the source gives them in different places. Marks after values point to notes of the source that are not given here.
# Key:
# [1] = test system: isolated rat liver mitochondria; test: Mitochondrial ROS production (CM-H2DCFDA)
# [2] = test system: isolated rat liver mitochondria; test: Mitochondrial inner membrane potential (MMP), Rhodamine 123; type: biochemical
# Excerpt: Fig. 3 KI effects on mitochondrial inner membrane potential (MMP). […] In a, c, data are means and standard derivations from three separate experiments. *p < 0.05 as compared to DMSO-treated samples at the end of experiments. In b, data are means of two independent experiments
# [3] = cited from earlier work
# [4] = test system: isolated rat liver mitochondria; settings: positive control alamethicin treated samples
# [5] = test system: isolated rat liver mitochondria; test: Mitochondrial swelling (absorbance at 535 nm); type: biochemical
# [6] = test system: RCC IV; test: RCC IV activity in submitochondrial particles; type: biochemical, rat; settings: 10-fold Cmax; 15 min; DMSO-treated = 100
# Summary of the method: (§1)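 First, submitochondrial particles (1 mg/ml) are incubated with inhibitor for 15 min. Next, complex activities are followed spectrophotometrically, with RCC I taken as the difference between buffers lacking and containing rotenone. Finally, activities are expressed relative to DMSO controls set at 1.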
# [7] = cited from earlier work; remark: listed apart in the source
# [8] = test system: RCC III; test: RCC III activity in submitochondrial particles; type: biochemical, rat; settings: 10-fold Cmax; 15 min; DMSO-treated = 100
# Summary of the method: as §1
# [9] = test system: isolated rat liver mitochondria; test: Mitochondrial oxygen consumption (glutamate/malate or succinate driven, state 4 and state 3); type: biochemical; settings: for Glutamate/malate driven respiration State 3 / Glutamate/malate driven respiration State 4 / Succinate-driven respiration State 3 / Succinate-driven respiration State 4: oxygen consumption, DMSO-treated = 1; on State 3 respiration driven by succinate at 10XCmax: key: 0 indicates that the drug had no effects (negative); on State 3 respiration driven by succinate at 1XCmax: key: 0 indicates that the drug had no effects (negative)
# Summary of the method: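 Rat liver mitochondria (1 mg/ml protein) exposed 5 min to kinase inhibitors in 0.1% DMSO, then O2 consumption measured by Clark-type electrode with glutamate/malate or succinate (state 4), ADP added after 3 min (state 3). Rates normalized to 0.1% DMSO controls set to 1.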
# [10] = 1XCmax, DMSO treated samples set as 1
# [11] = 2.5XCmax, DMSO treated samples set as 1
# [12] = 5XCmax, DMSO treated samples set as 1
# [13] = 10XCmax, DMSO treated samples set as 1
# [14] = 1XCmax, difference in signal between KI and DMSO treated samples at the end of experiments
structure (smiles),measurement,setting,value
CNC(=O)c1cc(Oc2ccc(NC(=O)Nc3ccc(Cl)c(C(F)(F)F)c3)c(F)c2)ccn1 [Regorafenib],ROS measured by CM-H2DCFDA at 1XCmax,[1]; [10],0
same,ROS measured by CM-H2DCFDA at 2.5XCmax,[1]; [11],0
same,ROS measured by CM-H2DCFDA at 5XCmax,[1]; [12],0
same,ROS measured by CM-H2DCFDA at 10XCmax,[1]; [13],0
same,effect on ROS production,[1]; highest tested concentrations,neither of them affected ROS production
same,lowest concentration decreasing MMP,[2],onefold
same,MMP measured by Rhodamine 123 at 1XCmax,[2]; [14],4244±687*
same,MMP measured by Rhodamine 123 at 2.5XCmax,"[2]; 2.5XCmax, difference in signal between KI and DMSO treated samples at the end of experiments",4112±722*
same,MMP measured by Rhodamine 123 at 5XCmax,"[2]; 5XCmax, difference in signal between KI and DMSO treated samples at the end of experiments",3961±724*
same,MMP measured by Rhodamine 123 at 10XCmax,"[2]; 10XCmax, difference in signal between KI and DMSO treated samples at the end of experiments",3711±588*
same,effect on MMP,[2]; up to 100-fold Cmax or highest testable concentration,decrease in MMP
same,Cmax,"[3]; human therapeutic Cmax at FDA recommended dosages, ref product labeling and drug approval packages at the official FDA website",8.08 µM
same,Cmax,"[3]; therapeutic maximal blood concentration, ref product labeling",3900 ng/mL
same,Cytochrome c release 1XCmax,[4]; 1XCmax,10.72±1.87 percentage of the positive control group
same,Cytochrome c release 2.5XCmax,[4]; 2.5XCmax,22.56±1.84 percentage of the positive control group
same,Cytochrome c release 5XCmax,[4]; 5XCmax,10.26±0.36 percentage of the positive control group
same,Cytochrome c release 10XCmax,[4]; 10XCmax,7.42±0.36 percentage of the positive control group
same,lowest concentration causing mitochondrial swelling,[5],onefold
same,Swelling 1XCmax,[5]; [14],0.46±0.03
same,mitochondrial swelling,[5]; onefold Cmax,almost maximal swelling
same,effect on mitochondrial swelling,"[5]; up to 100-fold Cmax or highest testable concentration, 25 µM calcium chloride",significant mitochondrial swelling
same,RCC activity IV,[6],95.37 ± 6.45 % of control
same,DILI potential (based on labeling),"[7]; 1 = DILI positive, 0 = negative, ref product labeling",1
same,Labeling for DILI,"[7]; BBW: black box warning, W&P: Warnings and Precautions, ref product labeling",BBW: fatal DILI
same,labeling for DILI,"[7]; W&P warnings and precautions, BBW black box warnings, ref FDA product labeling",BBW: fatal DILI
same,DILI potential (based on labeling),[7]; ref FDA product labeling,1
same,RCC activity III,[8],90.31 ± 13.61 % of control
same,Glutamate/malate driven respiration State 3,[9]; 1-fold Cmax,2.33 ± 0.06
same,Glutamate/malate driven respiration State 4,[9]; 1-fold Cmax,7.45 ± 0.17
same,Succinate-driven respiration State 3,[9]; 1-fold Cmax,1.05 ± 0.07
same,Succinate-driven respiration State 4,[9]; 1-fold Cmax,2.95 ± 0.08
same,State 3 respiration driven by glutamate/malate at 1XCmax,[9]; [10],2.33±0.06
same,State 3 respiration driven by succinate at 1XCmax,[9]; [10],0
same,State 4 respiration driven by glutamate/malate at 1XCmax,[9]; [10],7.45±0.17
same,State 4 respiration driven by succinate at 1XCmax,[9]; [10],2.95±0.08
same,Glutamate/malate driven respiration State 3,[9]; 2.5-fold Cmax,2.51 ± 0.04
same,Glutamate/malate driven respiration State 4,[9]; 2.5-fold Cmax,5.51 ± 0.35
same,Succinate-driven respiration State 3,[9]; 2.5-fold Cmax,0.84 ± 0.04
same,Succinate-driven respiration State 4,[9]; 2.5-fold Cmax,3.59 ± 0.14
same,State 3 respiration driven by glutamate/malate at 2.5XCmax,[9]; [11],2.51±0.04
same,State 3 respiration driven by succinate at 2.5XCmax,[9]; [11],0
same,State 4 respiration driven by glutamate/malate at 2.5XCmax,[9]; [11],5.51±0.35
same,State 4 respiration driven by succinate at 2.5XCmax,[9]; [11],3.59±0.14
same,Glutamate/malate driven respiration State 3,[9]; 5-fold Cmax,1.33 ± 0.04
same,Glutamate/malate driven respiration State 4,[9]; 5-fold Cmax,3.82 ± 0.72
same,Succinate-driven respiration State 3,[9]; 5-fold Cmax,0.83 ± 0.03
same,Succinate-driven respiration State 4,[9]; 5-fold Cmax,1.69 ± 0.09
same,State 3 respiration driven by glutamate/malate at 5XCmax,[9]; [12],1.33±0.04
same,State 3 respiration driven by succinate at 5XCmax,[9]; [12],0
same,State 4 respiration driven by glutamate/malate at 5XCmax,[9]; [12],3.82±0.72
same,State 4 respiration driven by succinate at 5XCmax,[9]; [12],1.69±0.09
same,Glutamate/malate driven respiration State 3,[9]; 10-fold Cmax,1.36 ± 0.03
same,Glutamate/malate driven respiration State 4,[9]; 10-fold Cmax,3.84 ± 0.34
same,Succinate-driven respiration State 3,[9]; 10-fold Cmax,0.82 ± 0.19
same,Succinate-driven respiration State 4,[9]; 10-fold Cmax,1.78 ± 0.19
same,State 3 respiration driven by glutamate/malate at 10XCmax,[9]; [13],1.36±0.03
same,State 3 respiration driven by succinate at 10XCmax,[9]; [13],0
same,State 4 respiration driven by glutamate/malate at 10XCmax,[9]; [13],3.84±0.34
same,State 4 respiration driven by succinate at 10XCmax,[9]; [13],1.78±0.19
same,effect on state 4 respiration,[9]; highest tested concentrations,significant increases
same,lowest concentration significantly affecting mitochondrial oxygen consumption,[9]; tested at 1 to 100-fold Cmax,equal to Cmax
